{
  "source": "patent US4495199A",
  "about": "“Dioxolanic amine with pharmacological activity, its method of preparation, the pharmaceutical compositions containing same and their use in human medicine” (priority 1982, dated 1985)",
  "key": {"[1]": {"test_system": "T wave in the conscious dog", "test": "Anti-angina activity, amplitude increase protection of the T wave by vasopression in the conscious dog", "format": "in vivo", "text": "The antiangina activity was also compared with that of the nitroglycerine by means of the amplitude increase protection test of the T wave for vasopression in the conscious dog. (A. Lindner, M. London, G. Werner, Scheiz. Med. Wsohr. 83, 360, 1953; J. Papp. L. Szekeres. Arch. Int. Pharmacodyn, 160, 1, 1966)."}, "[2]": {"test_system": "rat", "test": "Acute toxicity, oral, rat", "format": "in vivo", "protocol": "(§1) The respective lethal dose 50 was calculated according to the method of Litchfield and Wilcoxon (Jl. Pharmacol. Exptl. 96 99, 1949)."}, "[3]": {"test_system": "hindquarters of rats", "test": "Vasodilatory activity, perfusion of the hindquarters of rats with a hyperpotasemic solution", "set-up": "species or system rat", "conditions": "summary statement", "text": "In the Table 3 is shown the results of the vasodilatory activity of the ITA 362 in the perfusion test of the hindquarters of rats with a hyperpotasemic solution. (F. N. Fastier, F. M. Smirk. Jl, Pharmacolog. Exp. Therapy. 89. 256, 1947)."}, "[4]": {"test_system": "fibrillation by chloroform in the male NMRI mouse", "test": "Anti-arrhythmic activity, fibrillation by chloroform in the mouse, p.o.", "format": "in vivo", "text": "Tables 5 and 6 show the anti-arrythmic activity of the ITA 362 in the male NMRI mouse by oral and intraperitoneal route using the fibrillation test by chloroform in the mouse. (V. W. Lawson, J. Pharmacol. Exp. Ther. 160, 22, 1968; B. Vargaftig, J. L. Coignet. Eur.J. Pharmacol. 6, 49, 1969).\nThe activity of the two forms of maleate described in the example 4 were studied, with that in the table subtitled as isomer A corresponding to the first fraction obtained in the aforementioned example, and isomer B corresponding to the second fraction."}, "[5]": {"test": "Hygroscopicity", "format": "physicochemical"}, "[6]": {"test_system": "mouse", "test": "Acute toxicity, oral, mouse", "format": "in vivo", "protocol": "as §1"}},
  "note": "Structures can show the parent of a compound that is named as a salt.",
  "data": [
    {"smiles": "CCCCNCC1COC(c2ccc(Cl)cc2)(c2cc3ccccc3o2)O1", "note": "(stereo not drawn) [ITA 362, 2-(2'-benzofuranil)-4-n-butylaminomethyl-2-p-chlorophenyl-1,3-dioxolan]", "values": [
      {"measurement": "Antiangina activity relative to nitroglycerine", "setting": "[1]; 1 mg/kg i.v. vs nitroglycerine 0.4 mg/kg", "value": "greater than that of nitroglycerine"},
      {"measurement": "anti-angina activity (in words)", "setting": "[1]; summary statement", "value": "intense"},
      {"measurement": "toxicity (in words)", "setting": "[2]; summary statement, species not specified", "value": "low toxicity"},
      {"measurement": "vasodilatory activity (in words)", "setting": "[3]", "value": "intense"},
      {"measurement": "anti-arrhythmic activity (in words)", "setting": "[4]; summary statement", "value": "intense"}
    ]},
    {"smiles": "O=[N+]([O-])OCC(CO[N+](=O)[O-])O[N+](=O)[O-]", "note": "[Nitroglycerine, reference compound]", "values": [
      {"measurement": "quot. Control/treatment", "setting": "[1]; 0.4 mg/kg i.v.", "value": 1.520},
      {"measurement": "% Prot.", "setting": "[1]; 0.4 mg/kg i.v., t student n.s.", "value": 28.9, "unit": "%"}
    ]},
    {"smiles": "CCCCNCC1COC(c2ccc(Cl)cc2)(c2cc3ccccc3o2)O1", "note": "(single isomer, unassigned) [ITA 362 maleate (isomer A)]", "values": [
      {"measurement": "ED50", "setting": "[4]; Mus musculus, po, read-out: ED50 and confidence limits p < 0.05, p.o., dose column in mg/kg", "value": 35.4, "unit": "mg/kg"}
    ]},
    {"smiles": "CCCCNCC1COC(c2ccc(Cl)cc2)(c2cc3ccccc3o2)O1", "note": "(stereo not drawn) [ITA 362 citrate]", "values": [
      {"measurement": "% protection versus fibrillation", "setting": "[4]; 3.125 mg/kg p.o.", "value": 10, "unit": "%"},
      {"measurement": "hygroscopicity", "setting": "[5]", "value": "highly hydroscopic"}
    ]},
    {"smiles": "CCCCNCC1COC(c2ccc(Cl)cc2)(c2cc3ccccc3o2)O1", "note": "(stereo not drawn) [ITA 362 maleate, 2-(2'-benzofuranil)-4-butylaminomethyl-2-p-chlorophenyl-1,3-dioxolane, maleate]", "values": [
      {"measurement": "LD50", "setting": "[2]; rat, oral", "value": "> 4000", "unit": "mg/kg"},
      {"measurement": "LD50", "setting": "[6]", "value": "> 4000", "unit": "mg/kg"}
    ]}
  ]
}
